According to EP4707393A1, “DOUBLE-STRANDED SIRNA, CONJUGATE THEREOF AND USE THEREOF” (CMS Research & Development Pte. Ltd., priority 2023, dated 2024):

The substances below were run on human LPA gene (Genbank number: NM_005577.4) (assay: Inhibitory activity against LPA mRNA, psiCHECK-2 dual-luciferase reporter vector in Huh7 cells). Conditions: Huh7 cells transfected with LPA_psiCHECK-2 plasmid, RNAiMAX transfection.
Format: cell-based
Procedure: A stock solution was prepared by dissolving in PBS and stored at -20 °C.
The human LPA gene (Genbank number: NM_005577.4) was cloned into the psiCHECK™-2 vector.
Huh7 cells were cultured in DMEM (Gibco-11995-065, 500 mL) medium, supplemented with FBS (ExCellBio-FSP500, 57 mL), Penicillin-Streptomycin solution (Hyclone-SV30010, 5.7 mL), GlutaMAX™ (Gibco-35050-061, 5.7 mL) and Non-Essential Amino Acids Solution (Gibco-11140050, 5.7 mL).
On Day 1, a method for transfection of the LPA_PSICHECK (TM)-2 plasmid is briefly described as follows: Huh7 cells were washed with DPBS, followed by digestion with 0.05% trypsin, gently pipetted into single cells in DMEM containing 10% FBS, and counted. Plasmid DNA was transferred into Huh7 cells using Fugene HD. The transfected cells were seeded into 96-well plates at a density of 10,000 cells per well, with 100 µL culture medium per well. The cells were incubated overnight in a 5% CO2 incubator at 37 °C.
On Day 2, the test compounds were diluted serially with PBS to 3 concentrations.
RNAiMAX transfection reagent was prepared by blending homogeneously with Opti-MEM at a ratio of RNAiMAX: Opti-MEM=3:47 in a 15 mL centrifuge tube as needed. The compounds were mixed with the RNAiMAX/Opti-MEM (1:1) and incubated for 15 min. The compound-containing RNAiMAX/Opti-MEM mixture was diluted 10-fold with fresh medium and blended homogeneously.
The medium in each well was aspirated, and then 100 µL of the fresh compound-containing medium was added, and then incubated in a 5% CO2, 37 °C incubator.
Experimental procedures refer to DUAL-GLO® Dual Luciferase Assay System instructions, briefly described as follows: Taking out the cells from the incubator, aspirating and discarding the supernatant, adding 75µL fresh culture medium and 75µL detection reagent, shaking for 10 minutes in the dark, and after the cells had been fully lysed, transfering100µL sample to an opaque whiteboard for detecting the Firefly luminescence signal; adding 50 µL Dual-Glo®Stop & Glo® test reagent to each well and detecting the Renilla luciferase signal after shaking for 10 minutes in the dark. The ratio of the reporter signal to the internal control reporter signal was calculated for each well.
[formula] % Inhibition = (1-Sampleratio/RNAiMAXcontrolratio) × 100% [formula]
With “Z8: siRNA conjugate: sense SEQ ID NO:32, ligand D08 at 3' end of sense strand, antisense SEQ ID NO:56 (sense CCCTTATTGTTATACG; antisense ATCCCTCGTANAACAATAAGGGGCTGTT; 2'-OMe/2'-F modified, ligand at sense 3' end, full pattern not given here)” the EC50 was 0.81 nM. Work on “Z9: siRNA conjugate: sense SEQ ID NO:33, ligand D08 at 3' end of sense strand, antisense SEQ ID NO:56 (sense CCCTTATTGTTATACG; antisense ATCCCTCGTANAACAATAAGGGGCTGTT; ligand D08 at sense 3' end; listed as RNA; modified_base 1..2: mod_base = OTHER; note = 2'-O-methylcytidine; modified_base 3: mod_base = OTHER; modified_base 4..5: mod_base = OTHER; note = 2'-O-methyluridine; modified_base 6: mod_base = OTHER; note = 2'-O-me; modified_base 1: mod_base = OTHER; note = 2'-O-methyladenosine; modified_base 2: mod_base = OTHER; note = 2'-O-met)” yielded an EC50 of 1.77 nM. With “Z10: siRNA conjugate: sense SEQ ID NO:34, ligand D08 at 3' end of sense strand, antisense SEQ ID NO:56 (sense CCCTTATTGTTATACG; antisense ATCCCTCGTANAACAATAAGGGGCTGTT; 2'-OMe/2'-F modified, ligand at sense 3' end, full pattern not given here)” the EC50 was 2.11 nM. Substance “Z11: siRNA conjugate: sense SEQ ID NO:27, ligand D08 at 3' end of sense strand, antisense SEQ ID NO:59 (sense CCCTTATTGTTATACG; antisense ATCCCTCGTANAACAATAAGGGGCTGCC; 2'-OMe/2'-F modified, ligand at sense 3' end, full pattern not given here)” has an EC50 of 0.56 nM. For “Z12: siRNA conjugate: sense SEQ ID NO:27, ligand D08 at 3' end of sense strand, antisense SEQ ID NO:60 (sense CCCTTATTGTTATACG; antisense ATCCCTCGTANAACAATAAGGGGCTG; 2'-OMe/2'-F modified, ligand at sense 3' end, full pattern not given here)”, the EC50 was 0.32 nM. “Z13: siRNA conjugate: sense SEQ ID NO:27, ligand D08 at 3' end of sense strand, antisense SEQ ID NO:61 (sense CCCTTATTGTTATACG; antisense ATCCCTCGTANAACAATAAGGGGCTGTT; 2'-OMe/2'-F modified, ligand at sense 3' end, full pattern not given here)” was tested, and the EC50 was 0.42 nM. For “Z14: siRNA conjugate: sense SEQ ID NO:27, ligand D08 at 3' end of sense strand, antisense SEQ ID NO:62 (sense CCCTTATTGTTATACG; antisense ATCCCTCGTANAACAATAAGGGGCTGTT; 2'-OMe/2'-F modified, ligand at sense 3' end, full pattern not given here)”, the EC50 was 1.59 nM. Work on “Z15: siRNA conjugate: sense SEQ ID NO:27, ligand D08 at 3' end of sense strand, antisense SEQ ID NO:63 (sense CCCTTATTGTTATACG; antisense ATCCCTCGTANAACAATAAGGGGCTG; 2'-OMe/2'-F modified, ligand at sense 3' end, full pattern not given here)” yielded an EC50 of 0.23 nM. With “Z17: siRNA conjugate: sense SEQ ID NO:36, ligand D01 at 3' end of sense strand, antisense SEQ ID NO:63 (sense NNCCCCTTATTGTTATACN; antisense ATCCCTCGTANAACAATAAGGGGCTG; 2'-OMe/2'-F modified, ligand at sense 3' end, full pattern not given here)” the EC50 was 1.5 nM. For “Z18: siRNA conjugate: sense SEQ ID NO:36, ligand D01 at 3' end of sense strand, antisense SEQ ID NO:61 (sense NNCCCCTTATTGTTATACN; antisense ATCCCTCGTANAACAATAAGGGGCTGTT; 2'-OMe/2'-F modified, ligand at sense 3' end, full pattern not given here)”, the EC50 was 0.25 nM. “Z20: siRNA conjugate: sense SEQ ID NO:27, ligand D01 at 3' end of sense strand, antisense SEQ ID NO:56 (sense CCCTTATTGTTATACG; antisense ATCCCTCGTANAACAATAAGGGGCTGTT; 2'-OMe/2'-F modified, ligand at sense 3' end, full pattern not given here)” gave an EC50 of 0.51 nM. “Z21: siRNA conjugate: sense SEQ ID NO:36, ligand D01 at 3' end of sense strand, antisense SEQ ID NO:64 (sense NNCCCCTTATTGTTATACN; antisense TCTCGTANAACAATAAGGGGCTGTT; 2'-OMe/2'-F modified, ligand at sense 3' end, full pattern not given here)” showed an EC50 of 0.44 nM. For “Z22: siRNA conjugate: sense SEQ ID NO:38, ligand D18 at 3' end of sense strand, antisense SEQ ID NO:64 (sense NNCCCCTTATTGTTATACNA; antisense TCTCGTANAACAATAAGGGGCTGTT; 2'-OMe/2'-F modified, ligand at sense 3' end, full pattern not given here)”, the EC50 was 0.28 nM. “Z23: siRNA conjugate: sense SEQ ID NO:39, ligand D18 at 3' end of sense strand, antisense SEQ ID NO:64 (sense NNCCCCTTATTGTTATACGN; antisense TCTCGTANAACAATAAGGGGCTGTT; 2'-OMe/2'-F modified, ligand at sense 3' end, full pattern not given here)” gave an EC50 of 0.12 nM. “Z25: siRNA conjugate: sense SEQ ID NO:41, ligand D18 at 3' end of sense strand, antisense SEQ ID NO:64 (sense NNCCCCTTATTGTTATACGNGA; antisense TCTCGTANAACAATAAGGGGCTGTT; ligand D18 at sense 3' end; listed as RNA; modified_base 1: mod_base = OTHER; note = n is invAb; modified_base 2: mod_base = OTHER; note = n is R; modified_base 3..6: mod_base = OTHER; note = 2'-O-methylcytidine; modified_base 7: mod_base = OTHER; note = 2'-O-methyluridine; modified_ba; modified_base 3: mod_base = OTHER; modified_base 4: mod_base = OTHER; note = 2'-fluorocytidine; modified_base 5: mod_base = OTHER; note = 2'-O-methylg)” gave an EC50 of 0.68 nM. Work on “Z26: siRNA conjugate: sense SEQ ID NO:42, ligand D18 at 3' end of sense strand, antisense SEQ ID NO:65 (sense CCCTTATTGTTANACGA; antisense TCTCGTATNACAATAAGGGGCTT; ligand D18 at sense 3' end; listed as RNA; modified_base 1..2: mod_base = OTHER; note = 2'-O-methylcytidine; modified_base 3: mod_base = OTHER; modified_base 4: mod_base = OTHER; note = 2'-O-methyluridine; modified_base 5: mod_base = OTHER; note = 2'-fluorou; modified_base 1: mod_base = OTHER; note = 2'-fluorocytidine; note = 2'-O-methylg)” yielded an EC50 of 2.83 nM. For “Z36: siRNA conjugate: sense SEQ ID NO:50, ligand D18 at 3' end of sense strand, antisense SEQ ID NO:75 (sense CCTGCCAAGCTTGGTCATCTA; antisense TAGATGNCCAAGCTTGGCNGGTT; ligand D18 at sense 3' end; listed as RNA; modified_base 1..2: mod_base = OTHER; note = 2'-O-methylcytidine; modified_base 3: mod_base = OTHER; note = 2'-O-methyluridine; modified_base 4: mod_base = OTHER; note = 2'-O-methylguanosine; modified_base 5..6: mod_base = OTHER; note = 2'-O-m; modified_base 1: mod_base = OTHER; note = E-type vinylphosphonate-modified 2'-O-methyluridine; modified_base 2: mod_base = OTHER; note = 2'-fluoroadenosine; modified_base 4: m)”, the EC50 was 0.23 nM.
